{"source": "PubChem BioAssay AID1259409", "about": "(Chemical Carcinogenesis Research Information System (CCRIS), 2018)", "origin": "cited, not measured here", "test_system": "rodent chemically induced tumor inhibition, incidence and multiplicity", "experiment": "CCRIS tumor inhibitor studies", "settings": "Dose [Inhibitor]: 0, Route [Inhibitor]: ORAL, Promoter: NONE USED", "data": [{"molecule": "CN1C(C(=O)Nc2ccccn2)=C(O)c2ccccc2S1(=O)=O", "values": [{"measurement": "tumour outcome (control, treated, inhibition, significance)", "setting": "Carcinogen: 2-ACETYLAMINOFLUORENE, 53-96-3, 130 PPM IN DIET FOR 18 WK BEGINNING 1 WK PRIOR TO CARCINOGEN TREATMENT (STUDY DURATION: 36 WK), Species: RAT, Strain/Sex: ACI/N/MALE, Target Tissue: Type of Lesion: LIVER: TUMOR, Dose [Carcinogen]: 200 PPM IN DIET FOR 16 WK", "result": "10/10 (100%), 1/10 (10%), 90%, p=0.00006"}, {"measurement": "tumour outcome (control, treated, inhibition, significance)", "setting": "Carcinogen: 4-(METHYLNITROSAMINO)-1-(3-PYRIDYL-1-BUTANONE, 64091-91-4, 25 MG/KG IN DIET FOR 25 WK BEGINNING 2 WK PRIOR TO CARCINOGEN TREATMENT (STUDY DURATION: 25 WK), Species: MOUSE, Strain/Sex: STRAIN-A/FEMALE, Target Tissue: Type of Lesion: FORESTOMACH: TUMOR, Dose [Carcinogen]: 9.1 MG IN DRINKING WATER FOR 7 WK", "result": "7/25 (28%), 2/24 (8%), 71%, not significant"}, {"measurement": "tumour outcome (control, treated, inhibition, significance)", "setting": "Carcinogen: 7,12-DIMETHYLBENZ[A]ANTHRACENE, 57-97-6, 0.01% IN HIGH-FAT (20% SOYBEAN OIL) DIET FOR 20 WK BEGINNING 1 WK POST CARCINOGEN DOSE (STUDY DURATION: 21 WK), Species: RAT, Strain/Sex: SPRAGUE-DAWLEY/FEMALE, Target Tissue: Type of Lesion: MAMMARY GLAND: ADENOCARCINOMA, Dose [Carcinogen]: 5 MG ONCE", "result": "17/20 (85%), 19/21 (90%), -6%, not significant"}, {"measurement": "tumour outcome (control, treated, inhibition, significance)", "setting": "Carcinogen: 7,12-DIMETHYLBENZ[A]ANTHRACENE, 57-97-6, 0.01% IN LOW-FAT (0.5% SOYBEAN OIL) DIET FOR 20 WK BEGINNING 1 WK POST CARCINOGEN DOSE (STUDY DURATION: 21 WK), Species: RAT, Strain/Sex: SPRAGUE-DAWLEY/FEMALE, Target Tissue: Type of Lesion: MAMMARY GLAND: ADENOCARCINOMA, Dose [Carcinogen]: 5 MG ONCE", "result": "10/18 (56%), 9/20 (45%), 20%, not significant"}, {"measurement": "tumour outcome (control, treated, inhibition, significance)", "setting": "Carcinogen: AZOXYMETHANE, 25843-45-2, 25 PPM IN DIET BEGINNING 1 WK POST CARCINOGEN DOSE FOR DURATION OF STUDY (STUDY DURATION: 56 WK), Species: RAT, Strain/Sex: F344/MALE, Target Tissue: Type of Lesion: COLON: ADENOCARCINOMA, Dose [Carcinogen]: 29.6 MG/KG IN NORMAL SALINE ONCE", "result": "17/30 (57%), 10/30 (33%), 41%, not calculated"}, {"measurement": "tumour outcome (control, treated, inhibition, significance)", "setting": "Carcinogen: AZOXYMETHANE, 25843-45-2, 25 PPM IN DIET BEGINNING 1 WK POST CARCINOGEN DOSE FOR DURATION OF STUDY (STUDY DURATION: 56 WK), Species: RAT, Strain/Sex: F344/MALE, Target Tissue: Type of Lesion: COLON: ADENOMA, Dose [Carcinogen]: 29.6 MG/KG IN NORMAL SALINE ONCE", "result": "11/30 (37%), 16/30 (53%), -43%, not calculated"}, {"measurement": "tumour outcome (control, treated, inhibition, significance)", "setting": "Carcinogen: AZOXYMETHANE, 25843-45-2, 25 PPM IN DIET BEGINNING 1 WK POST CARCINOGEN DOSE FOR DURATION OF STUDY (STUDY DURATION: 56 WK), Species: RAT, Strain/Sex: F344/MALE, Target Tissue: Type of Lesion: SMALL INTESTINE: ADENOCARCINOMA, Dose [Carcinogen]: 29.6 MG/KG IN NORMAL SALINE ONCE", "result": "10/30 (33%), 7/30 (23%), 30%, not calculated"}, {"measurement": "tumour outcome (control, treated, inhibition, significance)", "setting": "Carcinogen: AZOXYMETHANE, 25843-45-2, 25 PPM IN DIET BEGINNING 1 WK POST CARCINOGEN DOSE FOR DURATION OF STUDY (STUDY DURATION: 56 WK), Species: RAT, Strain/Sex: F344/MALE, Target Tissue: Type of Lesion: SMALL INTESTINE: ADENOMA, Dose [Carcinogen]: 29.6 MG/KG IN NORMAL SALINE ONCE", "result": "1/30 (3%), 0/30 (0%), 100%, not significant"}, {"measurement": "tumour outcome (control, treated, inhibition, significance)", "setting": "Carcinogen: AZOXYMETHANE, 25843-45-2, 75 PPM IN DIET BEGINNING 1 WK POST CARCINOGEN DOSE FOR DURATION OF STUDY (STUDY DURATION: 56 WK), Species: RAT, Strain/Sex: F344/MALE, Target Tissue: Type of Lesion: COLON: ADENOCARCINOMA, Dose [Carcinogen]: 29.6 MG/KG IN NORMAL SALINE ONCE", "result": "17/30 (57%), 6/30 (20%), 65%, p<0.05"}, {"measurement": "tumour outcome (control, treated, inhibition, significance)", "setting": "Carcinogen: AZOXYMETHANE, 25843-45-2, 75 PPM IN DIET BEGINNING 1 WK POST CARCINOGEN DOSE FOR DURATION OF STUDY (STUDY DURATION: 56 WK), Species: RAT, Strain/Sex: F344/MALE, Target Tissue: Type of Lesion: COLON: ADENOMA, Dose [Carcinogen]: 29.6 MG/KG IN NORMAL SALINE ONCE", "result": "11/30 (37%), 14/30 (47%), -27%, not calculated"}, {"measurement": "tumour outcome (control, treated, inhibition, significance)", "setting": "Carcinogen: AZOXYMETHANE, 25843-45-2, 75 PPM IN DIET BEGINNING 1 WK POST CARCINOGEN DOSE FOR DURATION OF STUDY (STUDY DURATION: 56 WK), Species: RAT, Strain/Sex: F344/MALE, Target Tissue: Type of Lesion: SMALL INTESTINE: ADENOCARCINOMA, Dose [Carcinogen]: 29.6 MG/KG IN NORMAL SALINE ONCE", "result": "10/30 (33%), 9/30 (30%), 10%, not calculated"}, {"measurement": "tumour outcome (control, treated, inhibition, significance)", "setting": "Carcinogen: AZOXYMETHANE, 25843-45-2, 75 PPM IN DIET BEGINNING 1 WK POST CARCINOGEN DOSE FOR DURATION OF STUDY (STUDY DURATION: 56 WK), Species: RAT, Strain/Sex: F344/MALE, Target Tissue: Type of Lesion: SMALL INTESTINE: ADENOMA, Dose [Carcinogen]: 29.6 MG/KG IN NORMAL SALINE ONCE", "result": "1/30 (3%), 2/30 (7%), -133%, not calculated"}, {"measurement": "tumour outcome (control, treated, inhibition, significance)", "setting": "Carcinogen: AZOXYMETHANE, 25843-45-2, 75 PPM IN THE DIET FOR 28 WK BEGINNING 2 WK PRIOR TO CARCINOGEN TREATMENT (STUDY DURATION: 30 WK), Species: RAT, Strain/Sex: F344/MALE, Target Tissue: Type of Lesion: COLON: TUMOR, Dose [Carcinogen]: 15 MG/KG BW 1/WK FOR 2 WK", "result": "20/43 (47%), 19/56 (34%), 28%, p<0.05"}, {"measurement": "tumour outcome (control, treated, inhibition, significance)", "setting": "Carcinogen: AZOXYMETHANE, 25843-45-2, 150 PPM IN DIET BEGINNING 1 WK POST CARCINOGEN DOSE FOR DURATION OF STUDY (STUDY DURATION: 56 WK), Species: RAT, Strain/Sex: F344/MALE, Target Tissue: Type of Lesion: COLON: ADENOCARCINOMA, Dose [Carcinogen]: 29.6 MG/KG IN NORMAL SALINE ONCE", "result": "17/30 (57%), 7/30 (23%), 59%, p<0.05"}]}]}
